Legend:
SARS-CoV-2 P.2 (Zeta) [1] = experiment: microbe, parasite or virus in culture; assay type: cell-based
[2] = test system: SARS-CoV-2 B.1.427 (Epsilon); experiment: microbe, parasite or virus in culture; assay type: cell-based
[3] = test system: SARS-CoV-2 B.1.429 (Epsilon); experiment: microbe, parasite or virus in culture; assay type: cell-based
[4] = test system: SARS-CoV-2 B.1.1.7 (Alpha); experiment: microbe, parasite or virus in culture; assay type: cell-based
SARS-CoV-2 P.1 (Gamma) = experiment: microbe, parasite or virus in culture; assay type: cell-based
SARS-CoV-2 P.2 (Zeta) [5] = experiment: microbe, parasite or virus in culture; assay type: cell-based; remark: listed apart in the source
SARS-CoV-2 [6] = experiment: microbe, parasite or virus in culture; assay type: cell-based
SARS-CoV-2 [7] = experiment: Combinatorial sangivamycin/remdesivir efficacy testing, Vero E6 cells; assay type: cell-based; details: read-out: IC50 (nM), S:R by [Sangivamycin]
SARS-CoV-2 [8] = experiment: Combinatorial sangivamycin/remdesivir efficacy testing, Caco-2 cells; assay type: cell-based; details: Severe acute respiratory syndrome coronavirus 2, Caco-2; read-out: IC50 (nM), S:R by [Sangivamycin]
[9] = CellTiter-Glo cell viability assay; assay type: cell-based; details: human, A549 cells; A549, 72 h
[10] = Turbidimetric aqueous solubility screening; assay type: physicochemical; details: PBS, pH 7.4, PBS pH 7.4, 2 hours at 37°C, high test concentration 500 μM
Description: Aqueous solubility of sangivamycin was measured using a high-throughput turbidimetric assay performed by Cyprotex. Initially, sangivamycin stock DMSO solution was diluted in DMSO to produce a range of concentrations. These dilutions were added to PBS at pH 7.4 (high test concentration 500 μM) and incubated for 2 hours at 37°C. At the end of the incubation period, the absorbance at 620 nm was measured for each concentration for 2 replicates to determine turbidity from precipitate formation.

CYP1A2 = molecular target: T1, CYP1A2 (Homo sapiens, UniProt P05177); experiment: CYP inhibition testing, human liver microsomes; assay type: in vitro ADME
T1 construct: along with human liver microsomes (0.5 mg/mL) and cofactors; tissue Cyprotex (performed the assay); host or cells: human liver microsomes
T1 sequence (P05177 whole entry): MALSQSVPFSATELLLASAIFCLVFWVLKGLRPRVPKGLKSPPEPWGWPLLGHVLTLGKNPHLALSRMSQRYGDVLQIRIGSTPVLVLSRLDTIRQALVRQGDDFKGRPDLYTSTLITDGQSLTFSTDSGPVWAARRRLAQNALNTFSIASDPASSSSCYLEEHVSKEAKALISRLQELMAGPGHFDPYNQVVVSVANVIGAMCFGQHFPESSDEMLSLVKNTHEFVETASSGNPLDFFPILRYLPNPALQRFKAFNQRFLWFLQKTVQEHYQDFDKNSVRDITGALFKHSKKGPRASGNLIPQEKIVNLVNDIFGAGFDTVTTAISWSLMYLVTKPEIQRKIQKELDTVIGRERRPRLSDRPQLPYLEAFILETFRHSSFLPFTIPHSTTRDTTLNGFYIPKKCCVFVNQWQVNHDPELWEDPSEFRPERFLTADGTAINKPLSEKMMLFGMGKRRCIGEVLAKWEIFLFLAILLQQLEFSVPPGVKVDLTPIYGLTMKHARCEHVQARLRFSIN
Description: (§1) Sangivamycin was incubated by Cyprotex with a cocktail of model CYP substrates for CYP1A2, CYP2B6, CYP2C8, CYP2C9, CYP2C19, CYP2D6, CYP3A4, and CYP3A4, along with human liver microsomes (0.5 mg/mL) and cofactors (2.5 mM NADPH and 3.3 mM MgCl2), in 0.1 M phosphate buffer (pH 7.4) for 20 minutes at 37°C. Known CYP inhibitors were used in lieu of sangivamycin as positive controls: furafylin (1A2), thioTEPA (2B6), montelukast (2C8), sulfaphenazole (2C9), nootkatone (2C19), quinidine (2D6), and ketoconazole (3A4). Formation of substrate breakdown metabolites was measured by LC-MS/MS and compared with control incubation (incubation of substrates with microsomes and cofactors but in the absence of sangivamycin or in the presence of known inhibitors). CYP inhibition was measured as a decrease in the formation of expected metabolites in the presence of sangivamycin or control inhibitor (defined as a percentage of control).

CYP2B6 = molecular target: T2, CYP2B6 (Homo sapiens, UniProt P20813); experiment: CYP inhibition testing, human liver microsomes; assay type: in vitro ADME
T2 construct: along with human liver microsomes (0.5 mg/mL) and cofactors; tissue Cyprotex (performed the assay); host or cells: human liver microsomes
T2 sequence (P20813 whole entry): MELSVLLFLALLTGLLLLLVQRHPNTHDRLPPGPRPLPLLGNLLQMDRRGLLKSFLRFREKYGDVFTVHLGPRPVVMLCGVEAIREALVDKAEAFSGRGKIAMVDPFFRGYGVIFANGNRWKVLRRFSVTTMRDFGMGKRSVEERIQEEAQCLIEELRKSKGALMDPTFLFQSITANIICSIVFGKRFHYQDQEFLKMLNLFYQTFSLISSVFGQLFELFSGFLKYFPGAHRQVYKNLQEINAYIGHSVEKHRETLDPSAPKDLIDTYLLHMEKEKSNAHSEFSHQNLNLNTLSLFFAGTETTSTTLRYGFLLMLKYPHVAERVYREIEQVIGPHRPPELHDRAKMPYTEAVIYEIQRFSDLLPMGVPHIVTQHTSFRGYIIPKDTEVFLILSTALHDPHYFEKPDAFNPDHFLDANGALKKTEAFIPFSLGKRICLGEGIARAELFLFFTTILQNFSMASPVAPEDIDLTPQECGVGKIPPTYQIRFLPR
Description: as §1

CYP2C19 = molecular target: T3, CYP2C19 (Homo sapiens, UniProt P33261); experiment: CYP inhibition testing, human liver microsomes; assay type: in vitro ADME
T3 construct: along with human liver microsomes (0.5 mg/mL) and cofactors; tissue Cyprotex (performed the assay); host or cells: human liver microsomes
T3 sequence (P33261 whole entry): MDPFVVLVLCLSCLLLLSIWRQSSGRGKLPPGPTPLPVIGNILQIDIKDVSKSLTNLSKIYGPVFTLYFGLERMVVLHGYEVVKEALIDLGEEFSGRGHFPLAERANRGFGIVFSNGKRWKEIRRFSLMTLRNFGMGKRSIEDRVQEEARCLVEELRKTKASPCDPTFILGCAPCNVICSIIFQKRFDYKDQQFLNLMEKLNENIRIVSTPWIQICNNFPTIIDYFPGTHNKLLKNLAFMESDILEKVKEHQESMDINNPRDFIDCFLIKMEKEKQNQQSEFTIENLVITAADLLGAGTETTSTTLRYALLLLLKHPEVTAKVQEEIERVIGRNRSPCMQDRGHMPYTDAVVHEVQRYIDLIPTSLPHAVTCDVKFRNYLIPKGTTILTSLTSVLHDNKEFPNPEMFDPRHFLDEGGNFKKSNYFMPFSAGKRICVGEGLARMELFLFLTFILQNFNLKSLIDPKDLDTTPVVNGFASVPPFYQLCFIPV
Description: as §1

CYP2C8 = molecular target: T4, CYP2C8 (Homo sapiens, UniProt P10632); experiment: CYP inhibition testing, human liver microsomes; assay type: in vitro ADME
T4 construct: along with human liver microsomes (0.5 mg/mL) and cofactors; tissue Cyprotex (performed the assay); host or cells: human liver microsomes
T4 sequence (P10632 whole entry): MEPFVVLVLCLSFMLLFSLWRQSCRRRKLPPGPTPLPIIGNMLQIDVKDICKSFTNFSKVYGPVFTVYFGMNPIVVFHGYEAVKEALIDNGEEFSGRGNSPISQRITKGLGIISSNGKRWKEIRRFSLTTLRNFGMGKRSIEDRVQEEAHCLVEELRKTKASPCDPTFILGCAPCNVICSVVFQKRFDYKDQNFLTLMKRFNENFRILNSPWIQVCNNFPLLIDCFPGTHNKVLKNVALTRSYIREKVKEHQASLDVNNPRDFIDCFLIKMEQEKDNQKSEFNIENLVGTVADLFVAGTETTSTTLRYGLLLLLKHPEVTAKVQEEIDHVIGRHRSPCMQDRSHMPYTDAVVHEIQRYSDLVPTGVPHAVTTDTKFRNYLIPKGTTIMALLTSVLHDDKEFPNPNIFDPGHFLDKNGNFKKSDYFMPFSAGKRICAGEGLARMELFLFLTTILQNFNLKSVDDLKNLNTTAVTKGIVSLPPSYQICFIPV
Description: as §1

CYP2C9 = molecular target: T5, CYP2C9 (Homo sapiens, UniProt P11712); experiment: CYP inhibition testing, human liver microsomes; assay type: in vitro ADME
T5 construct: along with human liver microsomes (0.5 mg/mL) and cofactors; tissue Cyprotex (performed the assay); host or cells: human liver microsomes
T5 sequence (P11712 whole entry): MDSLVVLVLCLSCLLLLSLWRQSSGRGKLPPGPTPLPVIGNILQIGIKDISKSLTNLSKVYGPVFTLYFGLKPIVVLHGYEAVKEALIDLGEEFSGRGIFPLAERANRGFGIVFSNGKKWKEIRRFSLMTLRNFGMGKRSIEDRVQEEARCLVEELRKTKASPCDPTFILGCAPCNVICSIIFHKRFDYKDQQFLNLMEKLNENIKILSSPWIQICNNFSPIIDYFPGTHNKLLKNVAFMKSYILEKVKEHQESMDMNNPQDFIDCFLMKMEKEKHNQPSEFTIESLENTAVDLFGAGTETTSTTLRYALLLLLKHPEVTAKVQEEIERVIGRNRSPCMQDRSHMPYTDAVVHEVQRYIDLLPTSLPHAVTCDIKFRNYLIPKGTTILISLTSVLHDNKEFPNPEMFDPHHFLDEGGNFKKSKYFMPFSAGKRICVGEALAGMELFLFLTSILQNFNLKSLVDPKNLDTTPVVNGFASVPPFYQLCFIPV
Description: as §1

CYP2D6 = molecular target: T6, CYP2D6 (Homo sapiens, UniProt P10635); experiment: CYP inhibition testing, human liver microsomes; assay type: in vitro ADME
T6 construct: along with human liver microsomes (0.5 mg/mL) and cofactors; tissue Cyprotex (performed the assay); host or cells: human liver microsomes
T6 sequence (P10635 whole entry): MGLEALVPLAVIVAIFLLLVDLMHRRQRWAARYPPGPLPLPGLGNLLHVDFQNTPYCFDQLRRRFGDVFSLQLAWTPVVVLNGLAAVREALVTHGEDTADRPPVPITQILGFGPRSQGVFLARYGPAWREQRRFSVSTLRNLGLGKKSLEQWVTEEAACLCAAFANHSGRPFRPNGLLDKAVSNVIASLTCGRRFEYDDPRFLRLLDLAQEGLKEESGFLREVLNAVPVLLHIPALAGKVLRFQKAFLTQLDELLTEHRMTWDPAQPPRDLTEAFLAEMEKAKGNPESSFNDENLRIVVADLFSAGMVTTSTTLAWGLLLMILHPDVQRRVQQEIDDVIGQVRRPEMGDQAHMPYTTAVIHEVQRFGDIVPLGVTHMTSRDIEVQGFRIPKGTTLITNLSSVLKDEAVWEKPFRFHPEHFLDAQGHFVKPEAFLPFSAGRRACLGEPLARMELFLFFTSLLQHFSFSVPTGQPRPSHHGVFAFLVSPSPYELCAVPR
Description: as §1

CYP3A4 = molecular target: T7, CYP3A4 (Homo sapiens, UniProt P08684); experiment: CYP inhibition testing, human liver microsomes; assay type: in vitro ADME
T7 construct: along with human liver microsomes (0.5 mg/mL) and cofactors; tissue Cyprotex (performed the assay); host or cells: human liver microsomes
T7 sequence (P08684 whole entry): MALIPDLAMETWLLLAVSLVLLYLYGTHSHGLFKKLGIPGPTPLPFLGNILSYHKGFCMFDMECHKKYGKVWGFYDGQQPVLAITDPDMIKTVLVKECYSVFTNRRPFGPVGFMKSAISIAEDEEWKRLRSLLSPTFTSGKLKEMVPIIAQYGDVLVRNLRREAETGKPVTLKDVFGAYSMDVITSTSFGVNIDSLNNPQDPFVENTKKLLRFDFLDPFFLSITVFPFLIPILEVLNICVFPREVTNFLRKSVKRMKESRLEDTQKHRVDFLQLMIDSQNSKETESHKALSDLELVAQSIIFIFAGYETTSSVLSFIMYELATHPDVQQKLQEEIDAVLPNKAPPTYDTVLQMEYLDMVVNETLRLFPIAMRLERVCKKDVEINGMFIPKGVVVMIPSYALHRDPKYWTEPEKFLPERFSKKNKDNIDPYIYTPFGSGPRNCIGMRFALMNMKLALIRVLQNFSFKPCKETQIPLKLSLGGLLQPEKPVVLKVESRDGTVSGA
Description: as §1

[11] = test system: Lassa virus, Ebola virus, Marburg virus, cowpox virus and vaccinia virus; details: Vero E6 and Huh-7 cells; cited from earlier work
[12] = test system: Ebola virus RNA-directed RNA polymerase (RdRp) activity; details: in vitro; cited from earlier work
grivets = details: 10 days at 1.6 mg/kg/d and 28 days at 0.4 mg/kg/d; cited from earlier work
[13] = test system: HEK293T (human embryonic kidney); experiment: CellTox Green Cytotoxicity Assay; details: ratio > 1 cytostatic, ≤ 1 cytotoxic
A549 (human lung) = experiment: CellTox Green Cytotoxicity Assay; details: ratio > 1 cytostatic, ≤ 1 cytotoxic
[14] = test system: Calu-3 (human lung adenocarcinoma); experiment: CellTox Green Cytotoxicity Assay; details: ratio > 1 cytostatic, ≤ 1 cytotoxic
[15] = test system: Vero E6 (grivet kidney epithelial); experiment: CellTox Green Cytotoxicity Assay; details: ratio > 1 cytostatic, ≤ 1 cytotoxic
multiple cell types = experiment: CellTox Green Cytotoxicity Assay, average of 6 cell types; details: average ± SEM, n = 6 cell lines
[16] = Severe acute respiratory syndrome coronavirus 2, Vero C1008, 24 h
[17] = Severe acute respiratory syndrome coronavirus 2, Vero C1008, 48 h
[18] = Severe acute respiratory syndrome coronavirus 2, Calu-3, 24 h

With `NC(=O)c1cn([C@@H]2O[C@H](CO)[C@@H](O)[C@H]2O)c2ncnc(N)c12` [Sangivamycin, sangivamycin] the “SI (selectivity index, CC50/IC50)” value (SARS-CoV-2 P.2 (Zeta) [1]; P.2 (Zeta), Vero E6 cells) was over 20.1, the IC50 (SARS-CoV-2 P.2 (Zeta) [1]; [16]) was 29.8 nM and the IC90 (SARS-CoV-2 P.2 (Zeta) [1]; [16]) was 125 nM. For the same compound, the “SI (selectivity index, CC50/IC50)” value ([2]; B.1.427 (Epsilon), Vero E6 cells) was over 32.3, the IC50 [2, 16] was 18.6 nM and the IC90 [2, 16] was 212 nM. The “SI (selectivity index, CC50/IC50)” value ([3]; B.1.429 (Epsilon), Vero E6 cells) was over 8.2, the IC50 [3, 17] was 72.8 nM and the IC90 [3, 17] was 465 nM. The “SI (selectivity index, CC50/IC50)” value ([4]; B.1.1.7 (Alpha), Calu-3 cells) was over 10.1, the IC50 [4, 18] was 59.1 nM and the IC90 [4, 18] was 522 nM. The “SI (selectivity index, CC50/IC50)” value (SARS-CoV-2 P.1 (Gamma); P.1 (Gamma), Calu-3 cells) was over 9.5, the IC50 (SARS-CoV-2 P.1 (Gamma); [18]) was 63.3 nM and the IC90 (SARS-CoV-2 P.1 (Gamma); [18]) was 204 nM. For the same compound, the “SI (selectivity index, CC50/IC50)” value (SARS-CoV-2 P.2 (Zeta) [5]; P.2 (Zeta), Calu-3 cells) was over 15.2, the IC50 (SARS-CoV-2 P.2 (Zeta) [5]; [18]) was 39.6 nM and the IC90 (SARS-CoV-2 P.2 (Zeta) [5]; [18]) was 122 nM. The “SI calculated with the average CellTiter-Glo values” (SARS-CoV-2 [6]) was 13, the “average in vitro IC50 from all cell types tested, as dose” value (SARS-CoV-2 [6]; 2-compartment model for a 70 kg adult, water volumes 42 L) was 0.01 mg/kg and the IC50 (SARS-CoV-2 [6]; Severe acute respiratory syndrome coronavirus 2, n = 22, read-out: average IC50 for all viral testing in all cell lines and MOIs) was 47 ± 5 nM. For the same compound, the “SI calculated with the average CellTox Green” value (SARS-CoV-2 [6]; average CC50 / average IC50) was over 106, the IC50 (SARS-CoV-2 [7]; Severe acute respiratory syndrome coronavirus 2, Vero C1008) was 34 nM and the IC50 (SARS-CoV-2 [7]; listed as S:R 1:0) was 34.3 nM. The IC50 (SARS-CoV-2 [8]) was 39 nM, the CC50 at 72 h [9] was 173 nM and the solubility at 2 h [10] was at least 500 µM. It also gave an IC50 (CYP1A2) of over 100 µM, an IC50 (CYP2B6) of over 100 µM and an IC50 (CYP2C19) of over 100 µM. The IC50 (CYP2C8) was over 100 µM, the IC50 (CYP2C9) was over 100 µM and the IC50 (CYP2D6) was over 100 µM. For the same compound, the IC50 (CYP3A4) was over 100 µM, the IC50 [11] was “nanomolar range” and the “effect of remdesivir and sangivamycin combined” value [12] was “additive effect”. For the same compound, the CC50 (in vitro) was over 5 µM, the tolerability (grivets) was “tolerated” and the “Ratio CellTox Green/CellTiter-Glo” value [13] was over 5.65. The “Ratio CellTox Green/CellTiter-Glo” value (A549 (human lung)) was over 28.9, the “Ratio CellTox Green/CellTiter-Glo” value [14] was over 15.5 and the “Ratio CellTox Green/CellTiter-Glo” value [15] was over 10.2. For the same compound, the “Ratio CellTox Green/CellTiter-Glo, Average” value (multiple cell types) was over 12.2 ± 3.78.

— paper PMC8765048 (JCI Insight, 2022)
